The record followed here is patent publication US10017480B2, “Compounds having a selective PDE4D inhibiting activity” (UNIVERSITÂ DEGLI STUDI DI GENOVA, priority 2014, dated 2018).

For one data set, the target named is PDE4D3 (Homo sapiens, UniProt Q08499). Nature of the data set: PDE4D3 enzyme inhibition (IMAP). As to conditions: for PDE4D3 % inib at 10 μM: in duplicate; for IC50: five concentrations 10^−8-10^−4 M. The data set is classed as biochemical. Here is the method:
(§1) Compound's evaluation on PDE4D3, PDE4A4, PDE4B2 and PDE4C2 enzyme assays were performed by Scottish Biomedical (Glasgow, Scotland, UK) using recombinant human PDE enzymes expressed in a baculoviral system. The preliminary screening assays were performed by the IMAP technology (Molecular Devices), which is based on the high affinity binding of phosphate by immobilized metal coordination complexes on nanoparticles. The binding reagent complexes with phosphate groups on nucleotide monophosphate generated from cyclic nucleotides (cAMP) through phosphodiesterases. With fluorescence polarization detection, binding causes a change in the rate of the molecular motion of the phosphate bearing molecule and results in an increase in the fluorescence polarization value observed for the fluorescent label attached to the substrate. […] All compounds were solved in DMSO at 10^−2 M concentration and then diluted with water to the final suitable concentrations. All synthesized compounds were tested preliminary on PDE4D3 at 10^−5 M concentration, in duplicate. Results are expressed as a percent inhibition of control activity (see table 1).
IC50 values are reported at μM concentration in table 1. […] The results are reported (as percent of inhibition at 10 μM concentration) in Table 1.

The target of a further data set is T1, PDE4B2 (Homo sapiens, UniProt Q07343).
T1 construct: purchased Scottish Biomedical (Glasgow, Scotland, UK); host or cells: baculoviral system
Kind of data set: PDE4B2 enzyme inhibition (IMAP). The data set is classed as biochemical. The procedure:
as §1
(§2) The IC50 values obtained for the reference compounds are within accepted limits of historic averages obtained (0.5 log unit). IC50 values are reported at μM concentration in table 1. […] The results are reported (as percent of inhibition at 10 μM concentration) in Table 1.

The target in another data set is T2, PDE4C2 (Homo sapiens, UniProt Q08493).
T2 construct: purchased Scottish Biomedical (Glasgow, Scotland, UK); host or cells: baculoviral system
Nature of the data set: PDE4C2 enzyme inhibition (IMAP). Type of data set: biochemical. The procedure:
as §1, §2

Another data set deals with PDE4A4 (Homo sapiens, UniProt P27815). Nature of the data set: PDE4A4 enzyme inhibition (IMAP). The data set is classed as biochemical. Here is the method: as §1, §2
The target of a further data set is PDE4D1 (Homo sapiens, UniProt Q08499). Nature of the data set: PDE4D1 enzyme inhibition (IMAP). The data set is classed as biochemical.
The next data set has as its target PDE4D2 (Homo sapiens, UniProt Q08499). Nature of the data set: PDE4D2 enzyme inhibition (IMAP). Type of data set: biochemical.

PDE4D2, sequence (Q08499 303-809 limits assumed): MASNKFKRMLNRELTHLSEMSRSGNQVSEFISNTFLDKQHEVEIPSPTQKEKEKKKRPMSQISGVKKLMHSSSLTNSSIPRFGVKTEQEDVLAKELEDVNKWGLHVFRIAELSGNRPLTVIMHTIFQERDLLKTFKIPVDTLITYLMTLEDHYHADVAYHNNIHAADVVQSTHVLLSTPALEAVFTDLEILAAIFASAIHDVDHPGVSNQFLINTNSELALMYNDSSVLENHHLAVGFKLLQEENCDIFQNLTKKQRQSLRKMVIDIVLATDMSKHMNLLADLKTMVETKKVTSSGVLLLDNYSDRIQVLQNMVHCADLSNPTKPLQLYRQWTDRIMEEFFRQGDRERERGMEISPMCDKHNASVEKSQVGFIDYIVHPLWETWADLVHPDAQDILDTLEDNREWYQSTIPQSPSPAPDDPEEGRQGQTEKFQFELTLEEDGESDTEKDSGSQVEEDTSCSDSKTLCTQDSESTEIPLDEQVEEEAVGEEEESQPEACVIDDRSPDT
T1 sequence (Q07343 1-564 isoform Q07343-2): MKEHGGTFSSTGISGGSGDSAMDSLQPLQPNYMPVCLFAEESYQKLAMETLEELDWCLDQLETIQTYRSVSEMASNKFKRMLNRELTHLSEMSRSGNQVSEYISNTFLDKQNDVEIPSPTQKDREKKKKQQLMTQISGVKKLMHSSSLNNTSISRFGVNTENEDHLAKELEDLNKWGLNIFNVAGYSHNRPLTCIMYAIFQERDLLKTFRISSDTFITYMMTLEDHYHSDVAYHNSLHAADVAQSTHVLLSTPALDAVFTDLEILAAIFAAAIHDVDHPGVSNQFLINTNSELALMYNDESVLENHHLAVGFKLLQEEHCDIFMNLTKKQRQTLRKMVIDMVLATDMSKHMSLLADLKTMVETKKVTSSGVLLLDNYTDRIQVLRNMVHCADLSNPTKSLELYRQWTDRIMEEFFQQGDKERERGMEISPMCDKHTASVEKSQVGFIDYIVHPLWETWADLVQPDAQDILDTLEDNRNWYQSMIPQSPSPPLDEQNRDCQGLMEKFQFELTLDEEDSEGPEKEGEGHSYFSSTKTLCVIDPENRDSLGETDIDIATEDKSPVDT
PDE4A4, sequence (P27815 whole entry): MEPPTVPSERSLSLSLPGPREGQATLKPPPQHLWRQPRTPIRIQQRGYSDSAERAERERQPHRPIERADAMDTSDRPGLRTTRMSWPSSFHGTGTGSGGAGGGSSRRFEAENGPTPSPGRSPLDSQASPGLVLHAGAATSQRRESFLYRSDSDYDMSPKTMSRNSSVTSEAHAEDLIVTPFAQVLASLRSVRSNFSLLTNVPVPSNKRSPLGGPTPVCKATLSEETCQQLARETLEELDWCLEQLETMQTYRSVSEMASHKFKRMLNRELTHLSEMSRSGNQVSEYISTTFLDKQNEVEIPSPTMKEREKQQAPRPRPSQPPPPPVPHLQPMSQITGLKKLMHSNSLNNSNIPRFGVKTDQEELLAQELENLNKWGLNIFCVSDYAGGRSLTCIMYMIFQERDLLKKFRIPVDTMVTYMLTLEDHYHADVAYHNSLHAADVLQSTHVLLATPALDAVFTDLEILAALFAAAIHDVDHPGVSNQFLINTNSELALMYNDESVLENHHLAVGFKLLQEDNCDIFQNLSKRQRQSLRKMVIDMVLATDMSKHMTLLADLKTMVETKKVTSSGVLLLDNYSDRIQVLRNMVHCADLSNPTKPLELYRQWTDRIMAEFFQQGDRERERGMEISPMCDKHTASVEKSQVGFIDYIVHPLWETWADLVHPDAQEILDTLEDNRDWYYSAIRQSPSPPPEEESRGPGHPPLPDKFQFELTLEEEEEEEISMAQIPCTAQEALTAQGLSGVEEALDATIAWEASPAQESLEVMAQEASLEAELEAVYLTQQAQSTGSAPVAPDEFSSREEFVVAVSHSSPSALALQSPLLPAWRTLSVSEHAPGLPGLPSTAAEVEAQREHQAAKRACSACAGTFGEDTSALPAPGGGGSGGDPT
T2 sequence (Q08493 107-712): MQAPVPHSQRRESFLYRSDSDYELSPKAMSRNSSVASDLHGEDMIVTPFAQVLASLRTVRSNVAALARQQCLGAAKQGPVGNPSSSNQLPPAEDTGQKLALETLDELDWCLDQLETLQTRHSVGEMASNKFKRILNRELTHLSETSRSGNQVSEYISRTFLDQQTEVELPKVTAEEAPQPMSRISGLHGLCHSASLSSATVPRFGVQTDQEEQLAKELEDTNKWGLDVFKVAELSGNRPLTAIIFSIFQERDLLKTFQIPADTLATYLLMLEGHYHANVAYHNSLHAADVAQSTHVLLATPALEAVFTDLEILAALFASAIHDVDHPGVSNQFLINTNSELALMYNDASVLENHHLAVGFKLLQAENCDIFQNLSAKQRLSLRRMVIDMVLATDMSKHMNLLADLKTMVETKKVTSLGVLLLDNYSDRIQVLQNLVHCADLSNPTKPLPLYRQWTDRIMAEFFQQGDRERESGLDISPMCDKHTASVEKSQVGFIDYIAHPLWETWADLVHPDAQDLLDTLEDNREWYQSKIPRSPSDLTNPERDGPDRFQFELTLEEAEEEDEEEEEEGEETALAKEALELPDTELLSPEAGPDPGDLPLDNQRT
PDE4D3, sequence (Q08499 1-673 isoform Q08499-2): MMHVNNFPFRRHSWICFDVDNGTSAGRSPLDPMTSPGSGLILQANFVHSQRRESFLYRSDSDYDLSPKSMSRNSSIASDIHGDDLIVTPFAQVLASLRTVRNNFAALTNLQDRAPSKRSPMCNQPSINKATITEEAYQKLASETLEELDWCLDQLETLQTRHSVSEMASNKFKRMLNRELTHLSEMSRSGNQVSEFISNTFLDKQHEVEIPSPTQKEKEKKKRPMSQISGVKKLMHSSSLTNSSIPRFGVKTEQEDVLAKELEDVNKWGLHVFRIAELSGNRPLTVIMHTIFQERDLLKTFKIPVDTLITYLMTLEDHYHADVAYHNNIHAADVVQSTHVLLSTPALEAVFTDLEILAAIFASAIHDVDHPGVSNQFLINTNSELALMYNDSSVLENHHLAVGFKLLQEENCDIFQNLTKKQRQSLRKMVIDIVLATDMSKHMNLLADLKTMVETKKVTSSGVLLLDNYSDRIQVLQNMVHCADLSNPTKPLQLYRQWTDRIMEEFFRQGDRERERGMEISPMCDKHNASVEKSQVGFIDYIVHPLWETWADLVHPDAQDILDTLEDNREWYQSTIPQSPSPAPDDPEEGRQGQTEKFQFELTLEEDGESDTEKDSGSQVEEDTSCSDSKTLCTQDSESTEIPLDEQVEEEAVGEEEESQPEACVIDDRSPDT
PDE4D1, sequence (Q08499 1-584 isoform Q08499-4): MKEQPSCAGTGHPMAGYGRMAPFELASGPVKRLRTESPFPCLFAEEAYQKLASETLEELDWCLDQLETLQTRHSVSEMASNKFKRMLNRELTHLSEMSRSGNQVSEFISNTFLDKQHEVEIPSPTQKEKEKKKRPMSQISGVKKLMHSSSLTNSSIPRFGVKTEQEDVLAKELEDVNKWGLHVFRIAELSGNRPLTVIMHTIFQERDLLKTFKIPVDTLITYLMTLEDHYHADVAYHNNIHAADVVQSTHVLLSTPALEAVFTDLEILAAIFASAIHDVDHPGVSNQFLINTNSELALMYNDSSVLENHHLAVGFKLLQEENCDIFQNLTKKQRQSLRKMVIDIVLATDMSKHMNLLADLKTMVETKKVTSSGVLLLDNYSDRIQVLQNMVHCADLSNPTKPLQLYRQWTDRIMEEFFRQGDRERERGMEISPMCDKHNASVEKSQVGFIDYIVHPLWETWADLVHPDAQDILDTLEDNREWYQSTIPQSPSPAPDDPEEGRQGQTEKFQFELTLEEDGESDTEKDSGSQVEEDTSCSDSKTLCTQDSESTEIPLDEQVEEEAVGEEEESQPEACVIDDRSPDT

In the case of `COc1ccc(C2=NOC(CC(=O)N3CC(C)OC(C)C3)C2)cc1OC1CCCC1` (stereo not shown) [XIVb, 4-({3-[3-(Cyclopentiloxy)-4-methoxyphenyl]-4,5-dihydroisoxazol-5-yl}acetil) 2,6-dimethylmorpholine], the melting point (as a rule, the temperature, or range, at which the solid turns liquid) lay in the range of 104 to 105 °C. Also, at PDE4D3, the “PDE4D3 % inib at 10 μM” value was found to be 51% and the IC50 – broadly, the point on the concentration scale where inhibition reaches its midpoint – was 5.58 µM. Further, at PDE4B2, the “PDE4B2 % inib at 10 μM” value amounted to 27%. Further, at PDE4C2, the “PDE4C2 % inib at 10 μM” value was determined as 23%. In addition, the “PDE4A4 % inib at 10 μM” value on PDE4A4 turned out to be 45%.

Turning to `COc1ccc(C2=NOC(CC(=O)N3CCCC3)C2)cc1OC1CCCC1` (stereo not shown) [XIVd, 3-[3-(Cyclopentyloxy)-4-methoxyphenyl]-5-(2-oxo-2-pyrrolidin-1-ylethyl)-4,5-dihydroisoxazole], at PDE4D3, the “PDE4D3 % inib at 10 μM” value came to 57% and the IC50 came to 1.22 µM. The “PDE4B2 % inib at 10 μM” value on PDE4B2 was found to be 59%. The “PDE4C2 % inib at 10 μM” value on PDE4C2 turned out to be 47%. In addition, the “PDE4A4 % inib at 10 μM” value on PDE4A4 was 66%.

In turn, `COc1ccc(C2=NOC(CC(=O)N(CCO)CCO)C2)cc1OC1CCCC1` (stereo not shown) [XIVg, 2-{3-[3-(Cyclopentyloxy)-4-methoxyphenyl]-4,5-dihydroisoxazol-5-yl}-N,N-bis(2-hydroxyethyl)acetamide] gave a melting point of 136 to 138 °C. On PDE4D3, the “PDE4D3 % inib at 10 μM” value amounted to 65% and the IC50 is 1.11 µM. For the same molecule, on PDE4B2, the “PDE4B2 % inib at 10 μM” value was 68%. Besides, the “PDE4C2 % inib at 10 μM” value on PDE4C2 was determined as 40%. In addition, the “PDE4A4 % inib at 10 μM” value on PDE4A4 worked out at 69%.

`COc1ccc(-c2ccn(CC(O)CN3CC(C)OC(C)C3)n2)cc1OC1CCCC1` (stereo not shown) [XVIIIb, 1-{3-[3-(Cyclopentyloxy)-4-methoxyphenyl]-1H-pyrazol-1-yl}-3-(2,6-dimethylmorpholin-4-yl)propan-2-ol dihydrocloride]: on PDE4D3, the “PDE4D3 % inib at 10 μM” value was 78% and the IC50 came to 6 µM. In addition, at PDE4B2, the IC50 was found to be 0.46 µM and the “PDE4B2 % inib at 10 μM” value is on record as 53.0%. Further, the “PDE4D1 % inib at 10 μM” value on PDE4D1 came to 77%. The “PDE4D2 % inib at 10 μM” value on PDE4D2 was 75%. Moreover, at PDE4C2, the “PDE4C2 % inib at 10 μM” value is on record as 45%. Moreover, on PDE4A4, the IC50 was found to be 0.12 µM and the “PDE4A4 % inib at 10 μM” value was determined as 52%.

For the molecule `COc1ccc(-c2ccn(CCC(=O)N3CCC(O)CC3)c2)cc1OC1CCCC1` [XXIVc], the melting point was 110 to 112 °C. In addition, the “PDE4D3 % inib at 10 μM” value on PDE4D3 was 29%.

As for `COc1ccc(-c2ccn(CCC(=O)N3CCOCC3)n2)cc1OC1CCCC1` [XXIa, 4-(3-{3-[3-(cyclopentyloxy)-4-methoxyphenyl]-1H-pyrazol-1-yl}propanoyl)morpholine], at PDE4D3, the “PDE4D3 % inib at 10 μM” value was 42%. In addition, the “PDE4C2 % inib at 10 μM” value on PDE4C2 came out at 10%.

Take `COc1ccc(-c2ccn(CCC(=O)N3CC(C)OC(C)C3)n2)cc1OC1CCCC1` (stereo not shown) [XXIb, 4-(3-{3-[3-(cyclopentyloxy)-4-methoxyphenyl]-1H-pyrazol-1-yl}propanoyl)2,6-dimethylmorpholine]: at PDE4D3, the “PDE4D3 % inib at 10 μM” value stood at 53% and the IC50 came to 1.8 µM. The “PDE4B2 % inib at 10 μM” value at PDE4B2 was 28%. On PDE4C2, the “PDE4C2 % inib at 10 μM” value was 42%. Also, the “PDE4A4 % inib at 10 μM” value on PDE4A4 was found to be 28%.

`COc1ccc(-c2ccn(CC(=O)N3CCOCC3)n2)cc1OC1CCCC1` [XXa, 4-({3-[3-(Cyclopentyloxy)-4-methoxyphenyl]-1H-pyrazol-1-yl}acetyl)morpholine] showed a melting point of 131 to 132 °C. Also, the “PDE4D3 % inib at 10 μM” value on PDE4D3 is reported as 27%. On PDE4D1, the “PDE4D1 % inib at 10 μM” value was 42%. The “PDE4D2 % inib at 10 μM” value at PDE4D2 worked out at 23%.

Molecule `COc1ccc(-c2ccn(CC(=O)N3CC(C)OC(C)C3)n2)cc1OC1CCCC1` (stereo not shown) [XXb, 4-({3-[3-(Cyclopentyloxy)-4-methoxyphenyl]-1H-pyrazol-1-yl}acetyl)2,6-dimethylmorpholine] displayed a melting point of 99 to 100 °C. Moreover, the “PDE4D3 % inib at 10 μM” value at PDE4D3 came out at 23%. Besides, on PDE4D1, the “PDE4D1 % inib at 10 μM” value was found to be 18%. Also, the “PDE4D2 % inib at 10 μM” value at PDE4D2 is reported as 13%.
